Columns and labels:
cultured nerve cells = experiment: Action of protecting cultured nerve cells from glutamic acid toxicity (LDH leakage); assay type: cell-based, Wistar rat; settings: rat fetal cerebral cortex cells, 10 mM glutamic acid, 24 hours, read-out: ED50 (the source's name)
Text: It is known that when the blood flow to the brain is temporarily clogged due to cerebral ischemia, hypoxia, or an trauma, delayed cerebral neuronal death is induced [Document: Brain Research, Vol. 239, 57 (1982)]. A possible cause of such damage of the cerebral nerve cells is excitatory toxicity due to an excitatory neutotransmitter such as glutamic acid or the like, which is excessively released with ischemia [Document: Trends in Neuroscience, vol. 10, 299 (1987)]. […] This is a problem to be solved by the invention. This action was evaluated by using the in vitro evaluation system which will be described below.
A fetus was taken from the abdomen of a Wistar female rat on the 18 to 19th day of pregnancy under aseptic conditions, and the head of the fetus was opened to extract the brain. The brain was placed in an ice-cooled L-15 medium, and the cerebral cortex was separated under a microscope. The cerebral cortexes of about 30 rats were cut into pieces, and then suspended in 10 ml of a 0.25% trypsin solution and 0.2 ml of a 0.01% DNase solution, followed by culture at 37° C. for 30 minutes. Then, 2 ml of serum was added to the solution, and immediately the resultant mixture was centrifuged at 120 rpm for 2 minutes to separate the precipitates. To the precipitates was added 7 ml of a DF medium (a medium obtained by adding 20 nM of transferrin, 5 μg/ml of insulin, 20 nM of progesterone,60 nM of selenite, 50 U/ml of penicillin, and 50 U/ml of streptomycin to a mixture equivalent amounts of Dulbecco modified Eagle medium and F-12 medium), followed by 20 pipetting operations using a 10-ml plastic pipette to obtain a cell suspension. The cell suspension was filtered with nylon mesh (pore diameter 43 μm) to fractionate isolated cells. The thus-obtained isolated cells were diluted with a DF medium to a concentration of 6.0×10^5 cells/ml, and 500 μl of the diluted cells was inoculated in each of the 48 wells of a 48-well culture plate precoated with polylysine, followed by culture at 37° C. for 1 day in the presence of 5% of CO2. On the 2nd day, the medium was changed to a new DF medium, and 10 μl of a solution of 0.5M glutamic acid in distilled water was added to each of the wells (the final glutamic acid concentration was 10 mM), followed by further culture at 37° C. for 24 hours in the presence 5% of CO2. A test compound was dissolved in distilled water, 10% or 100% DMSO or 10% methanol, and 5 μl of the solution was added to each of the wells immediately before glutamic acid was added. As an index of nerve cell damage, the enzyme activity of lactic acid dehydrogenase (LDH) leaking from the damaged cells into the medium was measured. For each of the test compounds, the LDH leakage was measured at each of concentrations to determine a dose-response curve by the modified Cochran-Armitige method. The 50% effective dose (ED50) of each of the test compounds we determined from the curve.

[1] = tested on: middle cerebral artery ischemia model of rat; experiment: Infarction inhibiting action in middle cerebral artery ischemia (MCAo-recirculation) model of rat; assay type: in vivo; settings: ip, 24 h, 3 mg/kg i.p. 10 minutes before occlusion and 1 hour after recirculation, infarction volume one day after, vs control group, read-out: Rate of inhibition of infarction
Outline: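 Ten-week-old rats under halothane had the middle cerebral artery occluded for 1 h by an intraluminal embolus, followed by recirculation. Compounds were given i.p. at 3 mg/kg 10 min before occlusion and 1 h after recirculation. At one day, TTC-stained 2.0 mm coronal sections gave infarct volume (mm^3); % inhibition versus controls.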

Row | SMILES | EC50 (cultured nerve cells) | inhibition in vivo at 3 mg/kg [1]
1 | Cn1c2c(c3ccc4ccccc4c31)C[C@@]1(O)[C@H]3Cc4ccc(O)c5c4[C@@]1(CCN3CC1CC1)[C@H]2O5 [Compound 72, 17-cyclopropylmethyl-3,14β-dihydroxy-6,7-dehydro-4,5α-epoxy-6,7,2',3'-(1'-methyl-6',7'-benzoindolo)morphinan] | 26 nM | 85%
2 | Cn1c2c(c3cc4c5c(cccc5c31)-c1ccccc1-4)C[C@@]1(O)[C@H]3Cc4ccc(O)c5c4[C@@]1(CCN3CC1CC1)[C@H]2O5 [Compound 77, 17-cyclopropylmethyl-3,14β-dihydroxy-6,7-dehydro-4,5α-epoxy-6,7,2',3'-(1'-methyl-5',6"-benzeno-6',7'-benzoindolo)morphinan] | 160 nM | 84%
3 | Oc1ccc2c3c1O[C@H]1c4c(c5cc6c7c(cccc7c5n4Cc4ccccc4)-c4ccccc4-6)C[C@@]4(O)[C@@H](C2)N(CC2CC2)CC[C@]314 [Compound 79, 17-cyclopropylmethyl-3,14β-dihydroxy-6,7-dehydro-4,5α-epoxy-6,7,2',3'-(1'-benzyl-5',6"-benzeno-6',7'-benzoindolo)morphinan] | 190 nM | 26%
4 | Oc1ccc2c3c1O[C@H]1c4c(c5ccc6ccccc6c5n4CCc4ccccc4)C[C@@]4(O)[C@@H](C2)N(CC2CC2)CC[C@]314 [Compound 80, 17-cyclopropylmethyl-3,14β-dihydroxy-6,7-dehydro-4,5α-epoxy-6,7,2',3'-[1'-(2-phenylethyl)-6',7'-benzoindolo]morphinan] | 37 nM | 29%
5 | OCCn1c2c(c3ccc4ccccc4c31)C[C@@]1(O)[C@H]3Cc4ccc(O)c5c4[C@@]1(CCN3CC1CC1)[C@H]2O5 [Compound 81, 17-cyclopropylmethyl-3,14β-dihydroxy-6,7-dehydro-4,5α-epoxy-6,7,2',3'-[1'-(2-hydroxyethyl)-6',7'-benzoindolo]morphinan] | 67 nM | 11%
